1 molecule from US20060079677A1, “Novel tricyclic azepine derivatives, method for production thereof and pharmaceutical compositions comprising the same” (priority 2003, published 2006) can be followed below.

pIC50: −log10 of the molar value.

Test [1] has as its system L1210 cells. The experiment in a line: Action on the cell cycle. The test is classed as cell-based, murine. The conditions noted are these: 25 nM, after 21 hours (untreated cells: 20%). The protocol:
L1210 cells are incubated for 21 hours at 37° C. in the presence of various concentrations of test compounds. The cells are then fixed using 70% ethanol (v/v), washed twice in PBS and incubated for 30 minutes at 20° C. in PBS that contains 100 μg/ml of RNAse and 50 μg/ml of propidium iodide. The results are expressed as a percentage of the cells that have accumulated in the G2+M phases after 21 hours compared with the control.

In test [2] the test system is KB-3-1 human epidermoid carcinoma. The experiment in a line: In vitro cytotoxicity, Microculture Tetrazolium Assay. To be noted: 96 h, KB-3-1, incubated 4 days, inhibition of proliferation by 50%. In kind it is cell-based. The protocol:
(§1) Five cell lines were used: • 1 murine leukaemia, L1210, • 1 non-small-cell human lung carcinoma, A549, • 1 human epidermoid carcinoma, KB-3-1, and the corresponding resistant line, KB-A1, whose multi-drug resistance was induced using adriamycin (ADR), • 1 human colon carcinoma, HT29.
(§2) The cells are cultured in RPMI 1640 complete culture medium comprising 10% foetal calf serum, 2 mM glutamine, 50 units/ml of penicillin, 50 μg/ml of streptomycin and 10 mM Hepes, pH 7.4. The cells are distributed on microplates and are exposed to the cytotoxic compounds. The cells are then incubated for 2 days (L1210) or 4 days (A549, KB-A1, KB-3-1, HT29). The number of viable cells is then quantified by a colorimetric assay, the Microculture Tetrazolium Assay (Cancer Res. 1987, 47, 936-942).
(§3) The results are expressed as IC50, the concentration of cytotoxic agent that inhibits the proliferation of the treated cells by 50%.

For test [3], the system named is HT29 human colon carcinoma. The description is as above. In kind it is cell-based. The conditions noted are these: HT-29, 96 h, HT29, incubated 4 days, inhibition of proliferation by 50%. The protocol:
as §1, §2, §3

Test [4] has as its system A549 non-small-cell human lung carcinoma. The test is described as above. The test is classed as cell-based. The conditions noted are these: 96 h, A549, incubated 4 days, inhibition of proliferation by 50%. The procedure:
as §1, §2, §3

Test [5] deals with L1210 murine leukaemia. The description is as above. The test is classed as cell-based. To be noted: Mus musculus, 48 h; L1210, incubated 2 days, inhibition of proliferation by 50%. The protocol:
as §1, §2, §3

Test [6] has as its system KB-A1 resistant line (multi-drug resistance induced using adriamycin). The description is as above. The test is classed as cell-based, human. The procedure: as §1, §2, §3

What is called pIC50 is the negative decadic logarithm of the IC50, by convention in mol/L. Lower therefore signals a high IC50. For the molecule `COc1ccc(CCN2C=CC=C3C2=Nc2ccccc2OS3(=O)=O)cc1` [Example 42, 1-[2-(4-Methoxyphenyl)ethyl]-1H-pyrido[3,2-c][1,2,5]benzoxathiazepine 5,5-dioxide], in test [1], the “percentage of the cells accumulated in the G2+M phases” value is listed as 80-90%. In addition, the pIC50 is 7.81 in test [2]; 8.01 in test [3]; 7.95 in test [4]; 8.09 in test [5]; 7.88 in test [6] (Homo sapiens, 96 h, KB-A1, incubated 4 days, inhibition of proliferation by 50%). In test [6] (KB-A1 as sensitive as KB-3-1), the “recognition by P-glycoprotein (resistant line KB-A1 versus sensitive line KB-3-1)” value is on record as “not recognised by P-glycoprotein”.
